{
  "source": "paper doi:10.1101/2024.12.12.628185v1",
  "about": "(biorxiv, 2024)",
  "target": "T1, ERα (purified full-length human ERα) (Homo sapiens, UniProt P03372)",
  "T1 sequence (P03372 1-595)": "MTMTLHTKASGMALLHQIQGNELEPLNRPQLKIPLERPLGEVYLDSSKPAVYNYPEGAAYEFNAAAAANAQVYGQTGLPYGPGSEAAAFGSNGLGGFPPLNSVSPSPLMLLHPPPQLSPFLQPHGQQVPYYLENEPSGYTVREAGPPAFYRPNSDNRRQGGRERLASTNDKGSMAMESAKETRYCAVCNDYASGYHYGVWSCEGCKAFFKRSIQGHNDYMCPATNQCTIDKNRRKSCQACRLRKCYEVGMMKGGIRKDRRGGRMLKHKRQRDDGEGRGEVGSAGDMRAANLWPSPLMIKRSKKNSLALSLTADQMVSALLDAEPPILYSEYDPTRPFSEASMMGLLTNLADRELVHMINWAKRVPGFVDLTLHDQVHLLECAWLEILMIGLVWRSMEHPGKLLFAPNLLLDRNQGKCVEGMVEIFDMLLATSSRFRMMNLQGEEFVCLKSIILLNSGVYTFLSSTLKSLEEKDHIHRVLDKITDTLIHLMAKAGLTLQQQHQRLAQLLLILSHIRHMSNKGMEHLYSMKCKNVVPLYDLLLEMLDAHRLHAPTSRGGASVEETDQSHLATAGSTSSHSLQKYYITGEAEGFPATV",
  "test": "biochemical",
  "format": "binding",
  "data": [
    {"smiles": "CCCCC(CC)COC(=O)c1ccccc1C(=O)OCC(CC)CCCC", "note": "(stereo not shown) [DEHP]", "values": [
      {"measurement": "IC50", "value": "~500", "unit": "µM"}
    ]}
  ]
}
